Assay results as given in the METLIN SMRT retention time set (Domingo-Almenara et al. 2019).

Assay: gradient 5% acetonitrile 3 min, to 50% in 2 min, to 85% in 15 min, held 3 min, 100 µL/min
Settings: column: Zorbax Extend-C18 2.1 x 50 mm; eluents: water / acetonitrile, 0.1% formic acid
Procedure, shortened: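 In both positive and negative ionization mode, a quadrupole time-of-flight mass spectrometer coupled to HPLC analyzed pure standards run in mixtures of ~100 molecules. The Zorbax Extend-C18 column (2.1 × 50 mm, 1.8 μm) was operated at 100 μL/min with water and acetonitrile, each containing 0.1% formic acid. The dead volume was 40 μL and the dwell volume 900 μL. Retention time came from adduct peaks that were computationally picked and individually inspected by hand.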
Work on `O=C(c1cnccn1)N1CCCn2nc(-c3cccc(Cl)c3)cc2C1` yielded an RP-LC retention time of 767 s. In the case of `Cc1n[nH]c(C)c1S(=O)(=O)N1CCN(c2ccc3nnc(C4CC4)n3n2)CC1`, the RP-LC retention time is reported as 604 s. Work on `CC(=O)N1c2ccc(S(=O)(=O)N3CCCC3)cc2CC1C(=O)NCCc1ccc(C)cc1` (stereo unspecified) yielded an RP-LC retention time of 797 s. With `C=CCN1C(=O)COc2ccc(-c3nc(NC(=O)COC)sc3C)cc21` the RP-LC retention time was 836 s. Compound `CC(CNC(=O)c1cc2sc(Cl)cc2n1C)c1ccccc1` (stereo unspecified) has an RP-LC retention time of 1110 s. `O=S(=O)(/C=C/c1ccccc1)NCC1CCN(Cc2ccsc2)CC1` showed an RP-LC retention time of 586 s. Compound `Cc1c(C(=O)NCC(C)C)cnn1-c1cc(-c2nc(C3CC3)no2)ccn1` has an RP-LC retention time of 969 s. `COCc1cc(=O)n(CC(=O)Nc2cccc(SC)c2)c(N2CCOCC2)n1` showed an RP-LC retention time of 857 s. Compound `Cc1nn(C)c2nc(OC(C)C(=O)Nc3ccccc3F)cc(C(F)(F)F)c12` (stereo unspecified) has an RP-LC retention time of 1050 s. Work on `CCOC(=O)c1oc2ccc(S(=O)(=O)N3CCC(c4ccncc4)CC3)cc2c1C` yielded an RP-LC retention time of 730 s. Work on `Cc1ccc2c(c1)N(C(=O)Cn1ccc3ccn(Cc4ccccc4C)c3c1=O)CCO2` yielded an RP-LC retention time of 1090 s. Compound `CC1(C(=O)N2CC(F)(F)C[C@H]2c2nnc(-c3ccccc3)o2)CC1` has an RP-LC retention time of 834 s. With `CCc1nc(-c2csc(S(=O)(=O)N3CCC(C(=O)Nc4ccc(C)c(C)c4)CC3)c2)no1` the RP-LC retention time was 660 s. Compound `O=C(NC1CCCCCCC1)C1CCN(S(=O)(=O)c2cc(-c3noc(C4CC4)n3)cs2)CC1` has an RP-LC retention time of 1100 s. Compound `Cc1ccc(CSc2nc(CC(=O)N3CCC(C(N)=O)CC3)cs2)cc1` has an RP-LC retention time of 680 s. With `CCc1noc2nc(C)n(CC(=O)NCCc3ccc(C)cc3)c(=O)c12` the RP-LC retention time was 851 s. `CN(CC(=O)Nc1ccc(F)c(F)c1F)c1nc2c(Cl)cccc2s1` showed an RP-LC retention time of 1000 s. Work on `O=C(CN1C(=O)C2CCCCN2c2ccc(C(=O)N3CCCC3)cc21)NC1CCCC1` (stereo unspecified) yielded an RP-LC retention time of 732 s. In the case of `Cc1cccc(-c2noc(C3CCCN3S(=O)(=O)c3c(C)cc(C)cc3C)n2)c1` (stereo unspecified), the RP-LC retention time is reported as 1340 s. Compound `O=C(C1=CN(c2ccccc2)c2cc(F)ccc2S1(=O)=O)N1CCCCC1` has an RP-LC retention time of 882 s. `COc1ccc(F)cc1S(=O)(=O)N1CCN(C2CCN(C)C2=O)CC1` (stereo unspecified) showed an RP-LC retention time of 550 s. Work on `CNC(=O)c1ccc(-c2nc3cc(NS(=O)(=O)c4cnc[nH]4)ccc3n2C)cc1` yielded an RP-LC retention time of 548 s. For `Cc1ccc(-c2cc(C(=O)NCCCN3CCC(C)CC3)c(C)[nH]2)cc1C`, the RP-LC retention time was 725 s. For `O=S(=O)(c1cccc(-c2cn3ccccc3n2)c1)N1CCCC1`, the RP-LC retention time was 607 s. With `Cc1ccc(-c2nc3sc(N4CCCCC4)nn3c2NC(=O)c2ccnn2C)cc1` the RP-LC retention time was 887 s. Work on `CN1C(=O)CCc2cc(NS(=O)(=O)Cc3ccc(Cl)cc3)ccc21` yielded an RP-LC retention time of 788 s. Work on `CCc1ccccc1S(=O)(=O)N1CCC(C(=O)NCCc2csc(-c3ccccc3)n2)CC1` yielded an RP-LC retention time of 1010 s. For `Cc1nn(CC(=O)N2CCN(C)CC2)c(=O)c2nc(-c3ccccc3)sc12`, the RP-LC retention time was 616 s. Work on `Cc1noc(C)c1CN1CCC(NC(=O)c2ccc(F)cc2F)C1` (stereo unspecified) yielded an RP-LC retention time of 580 s. `COC(=O)c1cc2c(=O)n(-c3ccc(OC)cc3OC)ccc2nc1C` showed an RP-LC retention time of 803 s. `Cc1[nH]c(C(=O)N2CCC(CC(=O)N3CCCC3)CC2)c(C)c1C(=O)OC(C)C` showed an RP-LC retention time of 735 s. Work on `Cc1csc(NC(=O)C2CCN(S(=O)(=O)c3cc(C(=O)N4CCOCC4)cs3)CC2)n1` yielded an RP-LC retention time of 702 s. In the case of `Cc1ccc2nc(-c3c(F)cccc3Cl)c(Nc3ccc4c(c3)OCCO4)n2c1`, the RP-LC retention time is reported as 692 s. For `Cc1ccsc1C(=O)NCC(=O)Nc1nc2ccccc2[nH]1`, the RP-LC retention time was 613 s. Compound `CNC(=O)C1Cc2ccccc2N1S(=O)(=O)c1cccc(C(F)(F)F)c1` (stereo unspecified) has an RP-LC retention time of 802 s. For `COC(=O)c1c(NCc2ccc(OC)cc2)c2cccc(Cl)c2[nH]c1=O`, the RP-LC retention time was 788 s. Compound `Cc1cc(C(=O)NCCCN2CCN(c3cc(Cl)ccc3C)CC2)n(-c2ccccc2)n1` has an RP-LC retention time of 726 s. `COc1cc(=O)n(-c2ccccc2)nc1C(=O)NC(c1ccccc1)c1ccccc1` gave an RP-LC retention time of 828 s. `COc1ccc(CC(=O)NCCc2ccc(N(C)C)cc2)cc1` gave an RP-LC retention time of 571 s. For `CC(=O)c1ccc(NC(=O)C2CC(=O)N(c3ccc4oc(C)nc4c3)C2)cc1` (stereo unspecified), the RP-LC retention time was 685 s. `O=C(CCCCCCC(=O)Nc1ccc(F)cc1)NO` gave an RP-LC retention time of 628 s. `O=C(NC1CCCCCC1)c1ccc(-c2ccsc2)nc1` showed an RP-LC retention time of 943 s. `O=C(Cc1nnc(-c2cccc(F)c2)o1)NC1CCCC1` showed an RP-LC retention time of 746 s. `O=C(NCc1cccnc1)C1(CCO)CCN(c2ncccn2)C1` (stereo unspecified) gave an RP-LC retention time of 515 s. `Cc1csc(-c2cc(S(=O)(=O)NCC(C)C)cn2CC(=O)N2CCCCC2)n1` gave an RP-LC retention time of 926 s. For `N#Cc1ccsc1NC(=O)NC(c1ccccc1)c1ccccc1`, the RP-LC retention time was 947 s. `O=C(c1ccc2ccnc(N3CCN(c4ccc(Cl)cc4)CC3)c2c1)N1CCCCC1` showed an RP-LC retention time of 894 s. For `O=C(Nc1ccccc1)N1[C@H]2CC[C@@H]1c1cncnc1C2`, the RP-LC retention time was 651 s. For `Cc1ccc(N2CC(c3noc(-c4ccc(C)c(F)c4)n3)CC2=O)cc1` (stereo unspecified), the RP-LC retention time was 1100 s. For `COc1ccc(CCC(=O)N2CCCC2c2c(C)noc2C)cc1` (stereo unspecified), the RP-LC retention time was 868 s. Work on `CCOc1ccc(N(C)S(=O)(=O)c2ccsc2C(=O)NCc2cccc(OCC)c2)cc1` yielded an RP-LC retention time of 1160 s. With `O=C(Cn1c(=O)ccc2cc(S(=O)(=O)N3CCCC3)ccc21)N1CCN(c2ccccn2)CC1` the RP-LC retention time was 596 s. Compound `CCn1c(=O)sc2cc(S(=O)(=O)N3CCC(C(=O)NC(C)C)CC3)ccc21` has an RP-LC retention time of 749 s. In the case of `Cc1ccc(-c2nnc(-c3cccc(S(=O)(=O)NCC(=O)O)c3)o2)cc1`, the RP-LC retention time is reported as 764 s. Work on `CCN(CC)S(=O)(=O)c1ccc2c(c1)cc(C(=O)N1CCN(c3ncccn3)CC1)n2C` yielded an RP-LC retention time of 880 s. For `COc1cccc(CNC(=O)C2CCN(CC(=O)Nc3ccc(C)cc3)CC2)c1`, the RP-LC retention time was 582 s. In the case of `CCC1Oc2ccc(S(=O)(=O)N3CCC(C(=O)Nc4cccc(Cl)c4C)CC3)cc2NC1=O` (stereo unspecified), the RP-LC retention time is reported as 947 s. `Cc1cnc(C(=O)NCC23CCC=C2N(C)C(=O)CC3)cn1` (stereo unspecified) gave an RP-LC retention time of 666 s. Compound `O=C(CN1CCc2[nH]c3c(F)c(Cl)ccc3c(=O)c2C1)Nc1cc(F)ccc1F` has an RP-LC retention time of 691 s. Work on `O=C(Nc1cnc(N2CCCC2)nc1)c1cccc(Cl)c1` yielded an RP-LC retention time of 765 s. `O=C(NC1CC1)c1ccc2c(c1)CCN2C(=O)C1CCC1` gave an RP-LC retention time of 721 s. With `Cc1cccc(N2CCN(C(=O)C3CCN(S(=O)(=O)c4cn(C(C)C)cn4)CC3)CC2)c1C` the RP-LC retention time was 929 s. `CCN1C(=O)c2cc(S(=O)(=O)Nc3ccccc3C)ccc2Oc2cccnc21` gave an RP-LC retention time of 1000 s. `Cc1cc(C(=O)NC2CCc3nnc(C4CC4)n3CC2)c(C)n1Cc1ccco1` (stereo unspecified) gave an RP-LC retention time of 660 s. For `CCOC(=O)Cc1csc(NC(=O)C2CC(=O)N(c3n[nH]c4cccc(F)c34)C2)n1` (stereo unspecified), the RP-LC retention time was 699 s. In the case of `Nc1ccc(S(=O)(=O)N2CCCCC2c2cccnc2)cc1` (stereo unspecified), the RP-LC retention time is reported as 555 s.
